In patent US20230047816A1 (priority 2018, published 2023):

Each molecule was assayed against Recombinant full length human PFKFB3 (Homo sapiens, UniProt Q16875) (assay: PFKFB3 kinase activity assay (ADP production, ADP-Glo)).
Recombinant full length human PFKFB3, sequence (Q16875 whole entry): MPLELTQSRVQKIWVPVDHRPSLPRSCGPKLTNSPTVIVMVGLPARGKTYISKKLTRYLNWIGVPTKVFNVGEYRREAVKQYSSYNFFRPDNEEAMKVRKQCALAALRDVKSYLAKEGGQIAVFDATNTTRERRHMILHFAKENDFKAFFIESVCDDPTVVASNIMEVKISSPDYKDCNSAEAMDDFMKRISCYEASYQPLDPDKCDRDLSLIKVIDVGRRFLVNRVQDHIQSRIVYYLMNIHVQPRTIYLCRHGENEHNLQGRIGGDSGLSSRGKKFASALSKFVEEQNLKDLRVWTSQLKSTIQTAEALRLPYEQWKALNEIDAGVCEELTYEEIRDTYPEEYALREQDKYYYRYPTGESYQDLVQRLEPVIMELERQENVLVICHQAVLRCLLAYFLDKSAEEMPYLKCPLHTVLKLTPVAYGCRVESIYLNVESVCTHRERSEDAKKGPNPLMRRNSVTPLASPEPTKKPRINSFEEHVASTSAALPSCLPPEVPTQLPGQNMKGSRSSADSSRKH
Method: Recombinant full length human PFKFB3 (or PFKFB4) protein purified from Sf9 baculoviral system was acquired from SignalChem (Cat. #P323-30G or P324-30G). ATP, Fructose-6-Phosphate and other chemicals were from Sigma-Aldrich. The kinase activity of the PFKFB3 (PFKFB4) protein was detected by measuring production of ADP from ATP in the presence of the Fructose-6-Phosphate substrate. The kinase reactions were assembled in 384 well plates in a total volume of 25 μL. Test compounds were serially diluted in DMSO. Reactions were set up by first mixing test compounds with enzyme and pre-incubating for 15 min. The ATP and Fructose-6-Phosphate substrates were next added to initiate the kinase reactions.
The compounds of invention listed below in this example were tested at various concentrations (which also added 1% DMSO from compounds, to the final solution) as described below. The kinase reactions were allowed to proceed for 1 h at room temperature. Aliquots of the reaction mixtures (5 μL) were transferred to fresh white 384 well plates and mixed with 5 μL of the ADP-Glo reagent (Promega), followed by incubation for 30 min. The luminescent Kinase Detection reagent was added (10 μL) and, following additional incubation for 15 min, the plates were read on luminescence plate reader (Analyst HT). Positive (100%-inhibition) and negative (0%-inhibition) control samples were assembled in each assay plate and were used to calculate percent inhibition values of test compounds. All experiments were performed in duplicate.
Work on `O=C(O)c1ccc2c(c1)C(=O)N(c1cc(-c3ccc(F)c(F)c3F)ccc1C(=O)O)C2=O` [Compound 139, 2-(4-Carboxy-2′,3′,4′-trifluoro[1,1′-biphenyl]-3-yl)-1,3-dioxo-2,3-dihydro-1H-isoindole-5-carboxylic Acid] yielded an IC50 of less than 500 nM.
`O=C(O)c1ccc2c(c1)C(=O)N(c1cc(-c3cc(F)c(F)cc3F)ccc1C(=O)O)C2=O` [Compound 140, 2-(4-Carboxy-2′,4′,5′-trifluoro[1,1′-biphenyl]-3-yl)-1,3-dioxo-2,3-dihydro-1H-isoindole-5-carboxylic Acid] gave an IC50 of less than 500 nM.
With `Cc1ccc(-c2ccc(C(=O)O)c(N3C(=O)c4ccc(C(=O)O)cc4C3=O)c2)cc1` [Compound 141, 2-(4-Carboxy-4′-methyl[1,1′-biphenyl]-3-yl)-1,3-dioxo-2,3-dihydro-1H-isoindole-5-carboxylic acid] the IC50 was less than 500 nM.
Molecule `O=C(O)c1ccc2c(c1)C(=O)N(c1cc(-c3ccc(Cl)cc3Cl)ccc1C(=O)O)C2=O` [Compound 142, 2-(4-Carboxy-2′,4′-dichloro[1,1′-biphenyl]-3-yl)-1,3-dioxo-2,3-dihydro-1H-isoindole-5-carboxylic acid] has an IC50 of less than 500 nM.
`COc1ccc(-c2ccc(C(=O)O)c(N3C(=O)c4ccc(C(=O)O)cc4C3=O)c2)cc1F` [Compound 144, 2-(4-Carboxy-3′-fluoro-4′-methoxy[1,1′-biphenyl]-3-yl)-1,3-dioxo-2,3-dihydro-1H-isoindole-5-carboxylic acid] showed an IC50 of less than 500 nM.
In the case of `O=C(O)c1ccc(C(=O)O)c(C(=O)Nc2cc(-c3ccc(F)cc3)ccc2C(=O)O)c1` [Example 1, 2-({4-carboxy-4′-fluoro-[1,1′-biphenyl]-3-yl}carbamoyl)benzene-1,4-dicarboxylic acid], the IC50 is reported as 500 to 2000 nM.
Work on `COc1cc(N2C(=O)c3ccc(C(=O)O)cc3C2=O)ccc1-c1ccccc1` [Example 1] yielded an IC50 of 5000 to 20000 nM.
`O=C(O)c1ccc2c(c1)C(=O)N(c1ccc(-c3ccccc3)cc1-c1nnn[nH]1)C2=O` [Example 2, 1,3-Dioxo-2-[3-(1H-tetrazol-5-yl)-1,1′-biphenyl-4-yl]-2,3-dihydro-1H-isoindole-5-carboxylic Acid] gave an IC50 of less than 500 nM.
Molecule `O=C(O)c1ccc2c(c1)C(=O)N(c1cc(-c3ccccc3)ccc1O)C2=O` [Example 3, 2-(4-Hydroxy[1,1′-biphenyl]-3-yl)-1,3-dioxo-2,3-dihydro-1H-isoindole-5-carboxylic Acid] has an IC50 of 500 to 2000 nM.
In the case of `Nc1cc(C(=O)O)ccc1C(=O)Nc1cc(-c2ccccc2)ccc1C(=O)O` [Example 4, 3-(2-amino-4-carboxybenzamido)-[1,1′-biphenyl]-4-carboxylic acid], the IC50 is reported as less than 20000 nM.
`O=C(O)c1ccc2c(c1)C(=O)N(c1ccc(-c3ccccc3)cc1CO)C2=O` [Example 4] showed an IC50 of 2000 to 5000 nM.
In the case of `O=C(O)c1ccc(C(=O)Nc2cc(-c3ccccc3)ccc2C(=O)O)c(C(=O)O)c1` [Example 5, 4-({4-carboxy-[1,1′-biphenyl]-3-yl}carbamoyl)benzene-1,3-dicarboxylic acid], the IC50 is reported as 500 to 2000 nM.
With `O=C(O)c1cc(-c2cnn[nH]2)ccc1CNc1cc(-c2ccc(F)c(F)c2)ccc1C(=O)O` [Example 6, 3-({[2-carboxy-4-(2H-1,2,3-triazol-4-yl)phenyl]methyl}amino)-3′,4′-difluoro-[1,1′-biphenyl]-4-carboxylic acid] the IC50 was less than 500 nM.
Molecule `COc1ccc(-c2c(C)sc(N3C(=O)c4ccc(C(=O)O)cc4C3=O)c2C#N)cc1` [Example 6] has an IC50 of less than 500 nM.
In the case of `O=C(O)c1ccc(-c2cnn[nH]2)cc1CNc1cc(-c2ccc(F)c(F)c2)ccc1C(=O)O` [Example 7, 3-({[2-carboxy-5-(2H-1,2,3-triazol-4-yl)phenyl]methyl}amino)-3′,4′-difluoro-[1,1′-biphenyl]-4-carboxylic acid], the IC50 is reported as 5000 to 20000 nM.
`COc1ccc(-c2c(C)sc(NC(=O)c3ccc(-c4c[nH]nn4)cc3C(N)=O)c2C#N)cc1` [Example 8, N1-[3-cyano-4-(4-methoxyphenyl)-5-methylthiophen-2-yl]-4-(2H-1,2,3-triazol-4-yl)benzene-1,2-dicarboxamide] gave an IC50 of 5000 to 20000 nM.
